In ChEMBL document CHEMBL5370523, “Clinically approved small-molecule drugs for the treatment of rheumatoid arthritis” (Eur J Med Chem, 2023):

How the values were obtained:
[1] = biological target: Prostaglandin G/H synthase 1 (Homo sapiens, UniProt P23219); type: tissue-based, Blood
Description: Inhibition of COX-1 in human whole blood preincubated for 60 mins followed by calcium ionophore A23187 addition and measured after 30 mins by radioimmunoassay

[2] = biological target: T1, Prostaglandin G/H synthase 2 (Homo sapiens, UniProt P35354); type: tissue-based, Blood
T1 sequence (P35354 whole entry): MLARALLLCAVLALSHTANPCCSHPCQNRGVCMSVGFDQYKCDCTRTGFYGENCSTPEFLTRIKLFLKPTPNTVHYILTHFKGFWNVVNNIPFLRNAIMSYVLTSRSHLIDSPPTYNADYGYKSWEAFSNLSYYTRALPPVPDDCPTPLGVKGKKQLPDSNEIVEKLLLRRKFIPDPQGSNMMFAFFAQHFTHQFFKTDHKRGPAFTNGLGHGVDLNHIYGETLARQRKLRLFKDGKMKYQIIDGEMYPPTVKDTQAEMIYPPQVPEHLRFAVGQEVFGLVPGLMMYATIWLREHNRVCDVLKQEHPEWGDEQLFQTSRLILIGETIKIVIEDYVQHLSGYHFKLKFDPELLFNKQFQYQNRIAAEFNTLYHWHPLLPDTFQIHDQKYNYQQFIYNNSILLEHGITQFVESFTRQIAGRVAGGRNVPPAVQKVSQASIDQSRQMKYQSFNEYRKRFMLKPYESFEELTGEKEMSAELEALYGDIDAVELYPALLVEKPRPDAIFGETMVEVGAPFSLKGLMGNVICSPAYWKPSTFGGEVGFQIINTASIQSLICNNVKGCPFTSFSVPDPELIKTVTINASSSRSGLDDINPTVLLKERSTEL

[3] = biological target: T1, Prostaglandin G/H synthase 2

Sequence of Prostaglandin G/H synthase 1 (P23219 whole entry): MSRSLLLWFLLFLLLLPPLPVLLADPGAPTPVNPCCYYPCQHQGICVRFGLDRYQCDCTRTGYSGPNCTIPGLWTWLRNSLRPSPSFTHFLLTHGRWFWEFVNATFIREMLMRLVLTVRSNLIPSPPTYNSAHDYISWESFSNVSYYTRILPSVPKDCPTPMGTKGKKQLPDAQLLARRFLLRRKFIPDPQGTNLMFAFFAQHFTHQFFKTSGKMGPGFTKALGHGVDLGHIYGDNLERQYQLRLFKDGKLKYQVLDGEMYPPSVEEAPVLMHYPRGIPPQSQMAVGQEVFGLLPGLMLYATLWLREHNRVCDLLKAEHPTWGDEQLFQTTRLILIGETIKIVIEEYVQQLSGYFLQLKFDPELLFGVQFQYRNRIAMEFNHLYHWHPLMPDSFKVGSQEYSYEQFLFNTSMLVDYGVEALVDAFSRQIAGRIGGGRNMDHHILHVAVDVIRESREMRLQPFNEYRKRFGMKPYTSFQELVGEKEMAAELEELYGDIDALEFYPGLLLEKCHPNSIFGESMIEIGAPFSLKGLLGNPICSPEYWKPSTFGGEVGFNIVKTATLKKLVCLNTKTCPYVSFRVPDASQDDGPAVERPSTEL

IC50 [1]	IC50 [2]	IC50 [3]	SMILES
350 nM	820 nM		Cc1ccc(C(=O)c2ccc(CC(=O)O)n2C)cc1 [TOLMETIN]
		36000 nM	O=C(O)CCc1nc(-c2ccccc2)c(-c2ccccc2)o1 [OXAPROZIN]
